Results published in patent US12655116B2, “Substituted isophthalic acid diamides” (Bayer Aktiengesellschaft, priority 2020, dated 2026).

Key:
ECHCG [1] = assay: Pre-emergence herbicidal action against ECHCG; format: in vivo, Echinochloa crus-galli; details: 80 g/ha
How it was run: (§1)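 Herbicidal effect was assessed 3 weeks after treatment by visual comparison with untreated controls, 100% denoting dead plants. Aqueous WP or EC preparations had been applied at 600 to 800 l/ha with 0.2% wetting agent to the soil covering freshly sown seeds.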

DIGSA [2] = assay: Post-emergence herbicidal action against DIGSA; format: in vivo, Digitaria sanguinalis; details: 20 g/ha
How it was run: (§2)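 Post-emergence greenhouse test; one-leaf stage, 2–3 wk post-sowing, sandy loam. Foliar spray of WP/EC in water, 600–800 l/ha, +0.2% wetting agent. Visual % action at ~3 wk vs untreated (100% = plants dead).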

AMARE [3] = assay: Post-emergence herbicidal action against AMARE; format: in vivo, Amaranthus retroflexus; details: 20 g/ha, visual assessment about 3 weeks after treatment, 100% = plants have died, 0% = like control plants
How it was run: as §2

ABUTH [4] = assay: Post-emergence herbicidal action against ABUTH; format: in vivo, Abutilon theophrasti; details: dosage 20 g/ha, visual assessment about 3 weeks after treatment vs untreated controls
How it was run: as §2

ALOMY [5] = assay: Post-emergence herbicidal action against ALOMY; format: in vivo, Alopecurus myosuroides; details: dosage 20 g/ha, visual assessment about 3 weeks after treatment vs untreated controls
How it was run: as §2

AMARE [6] = assay: Pre-emergence herbicidal action against AMARE; format: in vivo, Amaranthus retroflexus
How it was run: as §1

VERPE [7] = assay: Post-emergence herbicidal action against VERPE; format: in vivo, Veronica persica; details: 20 g/ha
How it was run: as §2

VERPE [8] = assay: Pre-emergence herbicidal action against VERPE; format: in vivo, Veronica persica
How it was run: as §1

VIOTR [9] = assay: Pre-emergence herbicidal action against VIOTR; format: in vivo, Viola tricolor; details: dosage 80 g/ha
How it was run: as §1

POLCO = assay: Pre-emergence herbicidal action against POLCO; format: in vivo, Polygonum convolvulus; details: dosage 80 g/ha
Description: Seeds of monocotyledonous and dicotyledonous weed plants and crop plants are laid out in sandy loam soil in wood-fiber pots and covered with soil. The compounds of the invention, formulated in the form of wettable powders (WP) or as emulsion concentrates (EC), are then applied to the surface of the covering soil in the form of an aqueous suspension or emulsion at a water application rate equivalent to 600 to 800 l/ha, with addition of 0.2% wetting agent. After the treatment, the pots are placed in a greenhouse and kept under good growth conditions for the trial plants. The damage to the test plants is scored visually after a test period of 3 weeks by comparison with untreated controls (herbicidal activity in percent (%): 100% activity=the plants have died, 0% activity=like control plants). […] The tables below illustrate, in an illustrative manner, the post-emergence herbicidal action of the compounds of the invention, the herbicidal activity being stated in percent.

SETVI [10] = assay: Post-emergence herbicidal action against SETVI; format: in vivo, Setaria viridis; details: dosage 20 g/ha
How it was run: as §2

ALOMY [11] = assay: Pre-emergence herbicidal action against ALOMY; format: in vivo, Alopecurus myosuroides; details: 80 g/ha, pre-emergence, scored visually after 3 weeks vs untreated controls (100% = plants have died, 0% = like control plants)
How it was run: as §1

PHBPU [12] = assay: Post-emergence herbicidal action against PHBPU; format: in vivo, Pharbitis purpurea; details: dosage 20 g/ha
How it was run: as §2

ABUTH [13] = assay: Pre-emergence herbicidal action against ABUTH; format: in vivo, Abutilon theophrasti; details: for Pre-emergence action against ABUTH (herbicidal activity): 80 g/ha, scored visually after 3 weeks vs untreated controls (100% = plants have died, 0% = like control plants); for Pre-emergence action against ABUTH (herbicidal activity in percent): dosage 20 g/ha, scored visually after 3 weeks vs untreated controls, 100% = plants have died, 0% = like control plants
How it was run: as §1

DIGSA [14] = assay: Pre-emergence herbicidal action against DIGSA; format: in vivo, Digitaria sanguinalis
How it was run: as §1

MATIN = assay: Pre-emergence herbicidal action against MATIN; format: in vivo, Matricaria inodora
How it was run: as §1

VIOTR [15] = assay: Post-emergence herbicidal action against VIOTR; format: in vivo, Viola tricolor
How it was run: as §2

SETVI [16] = assay: Pre-emergence herbicidal action against SETVI; format: in vivo, Setaria viridis; details: dosage 80 g/ha
How it was run: as §1

ECHCG [17] = assay: Post-emergence herbicidal action against ECHCG; format: in vivo, Echinochloa crus-galli
How it was run: as §2

PHBPU [18] = assay: Pre-emergence herbicidal action against PHBPU; format: in vivo, Pharbitis purpurea; details: dosage 80 g/ha
How it was run: as §1

[19] = 20 g/ha, scored visually after 3 weeks vs untreated controls, 100% = plants have died, 0% = like control plants
[20] = 80 g/ha, scored visually after 3 weeks vs untreated controls (100% = plants have died, 0% = like control plants)

Structure (SMILES) | Pre-emergence action against ECHCG in % (ECHCG [1]) | Post-emergence action against DIGSA (DIGSA [2]) | Post-emergence action at 20 g/ha against AMARE in % (AMARE [3]) | Post-emergence action against ABUTH in % (ABUTH [4]) | Pre-emergence action against AMARE in % (AMARE [6]; [19]) | Pre-emergence action against AMARE in % (AMARE [6]; [20]) | Pre-emergence action against VIOTR in % (VIOTR [9]) | Pre-emergence action against POLCO in % (POLCO) | Post-emergence action against SETVI in % (SETVI [10]) | Pre-emergence action against ALOMY (herbicidal activity) (ALOMY [11]) | Pre-emergence action against ABUTH (herbicidal activity) (ABUTH [13]) | Pre-emergence action against ABUTH (herbicidal activity in percent) (ABUTH [13]) | Pre-emergence action against DIGSA in % (DIGSA [14]; dosage 20 g/ha) | Pre-emergence action against DIGSA in % (DIGSA [14]; dosage 80 g/ha) | Pre-emergence action against MATIN in % (MATIN; dosage 20 g/ha) | Pre-emergence action against MATIN in % (MATIN; dosage 80 g/ha) | Post-emergence action against VIOTR in % (VIOTR [15]; 20 g/ha) | Pre-emergence action against SETVI in % (SETVI [16]) | Post-emergence action against ECHCG in % (ECHCG [17]; dosage 5 g/ha) | Post-emergence action against ECHCG in % (ECHCG [17]; dosage 20 g/ha) | other results
CCn1nnnc1NC(=O)c1ccc(C(F)F)c(C(=O)NCCOC)c1Cl [Example 2-156] | 100% | 80% | 90% | 90% | 100% | 100% | 100% | 90% | 80% | 100% | 100% | 100% | 100% | 100% | 100% | 100% | 80% | 100% | 90% | 90% | Post-emergence action against ALOMY in % (ALOMY [5]): 90%; Post-emergence action against VERPE in % (VERPE [7]): 90%; Pre-emergence action against VERPE in % (VERPE [8]; dosage 20 g/ha): 80%; Pre-emergence action against VERPE in % (VERPE [8]; dosage 80 g/ha): 100%; Post-emergence action against PHBPU in % (PHBPU [12]): 90%
Cn1nnnc1NC(=O)c1ccc(C(F)(F)F)c(C(=O)NC2CCC2)c1Cl [Example 1-146] | 100% | – | 100% | 80% | 100% | 100% | 100% | 80% | – | 90% | 100% | 100% | 100% | 100% | 100% | 100% | 100% | 80% | – | 80% | Pre-emergence action against PHBPU in % (PHBPU [18]): 80%; Post-emergence action against VIOTR in % (VIOTR [15]; 5 g/ha): 80%
CCCNC(=O)c1c(C(F)F)ccc(C(=O)Nc2nnc(C)o2)c1Cl [Example 6-259] | 100% | 90% | 100% | 80% | 100% | 100% | 80% | 90% | 90% | 80% | 100% | 90% | 100% | 100% | 90% | 100% | – | 100% | 80% | 90% | Pre-emergence action against PHBPU in % (PHBPU [18]): 80%
